Source: paper PMC11164132 (British journal of pharmacology, 2021)

Biological target: hTRPV1 (Homo sapiens, UniProt Q8NER1)
Assay type: cell-based

hTRPV1, sequence (Q8NER1 whole entry): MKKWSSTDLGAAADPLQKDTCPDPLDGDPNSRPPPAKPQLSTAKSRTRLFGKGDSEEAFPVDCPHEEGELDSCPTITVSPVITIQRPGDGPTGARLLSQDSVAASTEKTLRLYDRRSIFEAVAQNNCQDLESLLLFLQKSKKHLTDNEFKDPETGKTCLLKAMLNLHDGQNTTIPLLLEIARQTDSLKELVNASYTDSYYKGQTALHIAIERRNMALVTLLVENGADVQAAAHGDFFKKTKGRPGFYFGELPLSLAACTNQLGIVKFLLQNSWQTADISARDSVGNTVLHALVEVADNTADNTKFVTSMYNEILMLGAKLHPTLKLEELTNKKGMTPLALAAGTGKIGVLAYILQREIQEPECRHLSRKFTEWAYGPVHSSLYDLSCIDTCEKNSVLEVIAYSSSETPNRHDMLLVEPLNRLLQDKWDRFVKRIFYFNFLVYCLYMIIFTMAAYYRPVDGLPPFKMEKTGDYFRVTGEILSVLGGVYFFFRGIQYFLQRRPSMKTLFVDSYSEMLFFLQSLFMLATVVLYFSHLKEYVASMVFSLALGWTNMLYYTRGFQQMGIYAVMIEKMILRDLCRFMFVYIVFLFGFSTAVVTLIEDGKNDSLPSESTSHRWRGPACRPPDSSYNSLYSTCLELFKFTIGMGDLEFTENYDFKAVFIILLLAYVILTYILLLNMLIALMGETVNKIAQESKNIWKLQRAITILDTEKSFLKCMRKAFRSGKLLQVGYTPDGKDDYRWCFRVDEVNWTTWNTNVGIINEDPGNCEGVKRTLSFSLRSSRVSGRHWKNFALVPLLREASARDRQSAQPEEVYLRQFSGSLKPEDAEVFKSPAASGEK

CCCCCCCCCCCC(=O)NCCO [compound 3, lauric acid monoethanolamide]
EC50: 3.2 µM
